# Experimental data taken from the supplement of paper PMC10307832.
# Legend:
# Assay in all cases: relative viability (nuclei count vs DMSO), 5 days (fraction); higher = more cells survive
# Zosuquidar + Alpelisib = compound: O[C@@H](COc1cccc2ncccc12)CN1CCN([C@@H]2c3ccccc3[C@@H]3[C@H](c4ccccc42)C3(F)F)CC1 [Zosuquidar] + Cc1nc(NC(=O)N2CCC[C@H]2C(N)=O)sc1-c1ccnc(C(C)(C)C(F)(F)F)c1 [Alpelisib] (partner 2 µM)
# Procedure, shortened: (§1)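 Relative viability divides the nuclei count in treated wells by that in vehicle wells. Lung cancer cell lines were seeded in 1536-well plates, dosed by pin tool the next day, and fixed and stained after 5 days in one step with final 0.05% Triton X-100, 1% formaldehyde and 1 ug/ml Hoechst. Dosing was a single drug or a fixed anchor-drug dose plus five library-drug doses (not always all listed) in √10 steps, and values are medians of duplicate plates imaged at 4×.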
# Zosuquidar + Crizotinib = compound: O[C@@H](COc1cccc2ncccc12)CN1CCN([C@@H]2c3ccccc3[C@@H]3[C@H](c4ccccc42)C3(F)F)CC1 [Zosuquidar] + C[C@@H](Oc1cc(-c2cnn(C3CCNCC3)c2)cnc1N)c1c(Cl)ccc(F)c1Cl [Crizotinib] (partner 1 µM)
# Procedure, shortened: as §1
# Zosuquidar + Foretinib = compound: O[C@@H](COc1cccc2ncccc12)CN1CCN([C@@H]2c3ccccc3[C@@H]3[C@H](c4ccccc42)C3(F)F)CC1 [Zosuquidar] + COc1cc2c(Oc3ccc(NC(=O)C4(C(=O)Nc5ccc(F)cc5)CC4)cc3F)ccnc2cc1OCCCN1CCOCC1 [Foretinib] (partner 0.25 µM)
# Procedure, shortened: as §1
# Zosuquidar + OSI-027 = compound: O[C@@H](COc1cccc2ncccc12)CN1CCN([C@@H]2c3ccccc3[C@@H]3[C@H](c4ccccc42)C3(F)F)CC1 [Zosuquidar] + COc1cccc2cc(-c3nc([C@H]4CC[C@H](C(=O)O)CC4)n4ncnc(N)c34)[nH]c12 [OSI-027] (partner 0.5 µM)
# Procedure, shortened: as §1
Cell Line,relative viability (Zosuquidar + Alpelisib; first compound 0.01 µM),relative viability (Zosuquidar + Alpelisib; first compound 0.03162 µM),relative viability (Zosuquidar + Alpelisib; first compound 0.1 µM),relative viability (Zosuquidar + Alpelisib; first compound 0.3162 µM),relative viability (Zosuquidar + Alpelisib; first compound 1 µM),relative viability (Zosuquidar + Crizotinib; first compound 0.03162 µM),relative viability (Zosuquidar + Crizotinib; first compound 0.1 µM),relative viability (Zosuquidar + Crizotinib; first compound 0.3162 µM),relative viability (Zosuquidar + Crizotinib; first compound 1 µM),relative viability (Zosuquidar + Foretinib; first compound 0.01 µM),relative viability (Zosuquidar + Foretinib; first compound 0.03162 µM),relative viability (Zosuquidar + Foretinib; first compound 0.1 µM),relative viability (Zosuquidar + Foretinib; first compound 0.3162 µM),relative viability (Zosuquidar + Foretinib; first compound 1 µM),relative viability (Zosuquidar + OSI-027; first compound 0.01 µM),relative viability (Zosuquidar + OSI-027; first compound 0.03162 µM),relative viability (Zosuquidar + OSI-027; first compound 0.1 µM),relative viability (Zosuquidar + OSI-027; first compound 0.3162 µM),relative viability (Zosuquidar + OSI-027; first compound 1 µM),relative viability (Zosuquidar + Crizotinib; first compound 0.01 µM)
IA-LM,0.818,0.908,0.714,0.909,0.773,0.804,1.05,1.03,0.861,1.09,1.23,1.26,1.34,1.17,,,,,,
NCI-H522,,,,,,,,,,,,,,,0.714,0.58,0.756,0.898,0.857,
NCI-H1299,1.07,0.998,1.05,0.995,1.05,1.01,1.03,0.982,0.928,1.09,1.08,1.15,1.14,1.06,,,,,,0.938
NCI-H1395,1,1.01,0.819,1.17,1.17,,,,,0.98,0.957,0.824,1.06,1,0.653,0.578,0.552,0.797,0.677,
NCI-H1623,,,,,,,,,,0.868,0.832,0.821,0.933,0.803,0.432,0.464,0.421,0.441,0.43,
NCI-H1648,,,,,,,,,,,,,,,0.243,,0.234,0.288,0.245,
NCI-H1650,,,,,,1.02,0.974,1.01,1.02,1.12,1.04,1.21,1.15,1.49,0.737,0.607,0.601,0.759,0.669,0.888
NCI-H1703,0.355,0.325,0.237,0.438,0.345,1.13,0.682,0.582,1.01,0.353,0.287,0.341,0.393,0.33,,,,,,0.785
NCI-H1792,0.66,0.813,0.53,0.705,0.799,0.771,0.776,0.954,0.977,,,,,,0.786,0.601,,0.837,0.753,0.912
NCI-H1793,0.717,0.665,,0.825,0.776,,,,,0.747,0.914,,0.896,0.641,0.315,0.389,,0.287,0.311,
NCI-H2342,,,,,,,,,,1.1,1.18,0.878,1,1.06,0.605,0.597,0.558,0.668,0.624,
SW 900,,,,,,,,,,0.761,0.86,0.819,0.952,0.854,0.676,0.507,0.493,0.646,0.706,
